The structures appear in SMILES notation. Starred links: 1 amine or outer side, 2 acyl side, 3 side chain; linkers in the order of their positions; H or OH if unused. Residues, ends and D or L forms follow the SMILES beside them. CO = O=C([*:1])[*:2]

The assay deals with SARS‐CoV‐2 spike (delta/omicron variant) pseudotyped particle. The assay can be described thus: microbe, parasite or virus in culture. Format: cell-based. The following applies: for EC50: Severe acute respiratory syndrome coronavirus 2, A549-hACE2-TMPRSS2, read-out: EC50 SARS-CoV-2 entry inhibition.
Where [1] appears, read: Severe acute respiratory syndrome coronavirus 2, A549-hACE2-TMPRSS2, read-out: SARS-CoV-2 viral entry inhibition.

With `CC(C)[C@H](NC(=O)[C@H](CCCNC(=N)N)NC(=O)N[C@@H](Cc1ccccc1)C(=O)O)C(=O)N[C@H](C=O)CCCNC(=N)N` [antipain, L‐Phe‐CO‐L‐Arg‐L‐Val‐L‐Arg‐H] ({Phe-CO}-Arg-Val-Arg-aldehyde), the inhibition at 100 µM under setting [1] was determined as 81%.

As for `CN1C2CCC1CC(OC(c1ccc(F)cc1)c1ccc(F)cc1)C2` (stereo not shown) [AHN 1‐055, difluorobenztropine], the EC50 is over 50000 nM.

As for `CN(C)C(=O)COC(=O)Cc1ccc(OC(=O)c2ccc(NC(=N)N)cc2)cc1` [camostat], the EC50 worked out at 980 nM. Moreover, the inhibition at 50 µM under setting [1] is 97%.

One may read the inhibition as the drop in the measured response relative to a control, in per cent. By EC50 is commonly meant the concentration needed to bring the measured effect to its halfway point.

The values above are taken from article PMC9874818 (Archiv Der Pharmazie, 2022).
